Data published in ChEMBL document CHEMBL1153480, “Study on the potential anti-cancer activity of phosphonium and ammonium-based ionic liquids” (2009).

Key:
Assay type in all cases: functional
HCC 2998 [1] = assay: cells; settings: Homo sapiens
Description: Growth inhibition of human HCC2998 cells assessed as cell growth at 10 uM by SRB assay

NCI-H322M [2] = assay: cells; settings: Homo sapiens
Description: Growth inhibition of human NCI-H322M cells assessed as drug level required for 50% reduction in net protein increase by SRB assay relative to control

LOX IMVI [3] = assay: cells; settings: Homo sapiens
Description: Growth inhibition of human LOXIMVI cells assessed as cell growth at 10 uM by SRB assay

MCF7 [4] = assay: cells; settings: Homo sapiens
Description: Growth inhibition of human MCF7 cells assessed as drug level required for 50% reduction in net protein increase by SRB assay relative to control

SW-620 [5] = assay: cells; settings: Homo sapiens
Description: Growth inhibition of human SW620 cells assessed as cell growth at 10 uM by SRB assay

SF-295 [6] = assay: Cytotoxicity against human SF295 cells by SRB assay; settings: read-out: LC50 (the source's name)
SNB-19 [7] = assay: cells; settings: Homo sapiens
Description: Growth inhibition of human SNB19 cells assessed as drug level required for 50% reduction in net protein increase by SRB assay relative to control

OVCAR-8 = assay: cells; settings: Homo sapiens
Description: Growth inhibition of human OVCAR8 cells assessed as drug level required for 50% reduction in net protein increase by SRB assay relative to control

SF-295 [8] = assay: cells; settings: Homo sapiens
Description: Growth inhibition of human SF295 cells assessed as cell growth at 10 uM by SRB assay

K562 = assay: cells; settings: Homo sapiens
Description: Growth inhibition of human K562 cells assessed as cell growth at 10 uM by SRB assay

UACC-62 [9] = assay: cells; settings: Homo sapiens
Description: Growth inhibition of human UACC62 cells assessed as cell growth at 10 uM by SRB assay

cells [10] = settings: Homo sapiens, CAKI
Description: Growth inhibition of human CAKI cells assessed as cell growth at 10 uM by SRB assay

HCC 2998 [11] = assay: Cytotoxicity against human HCC2998 cells by SRB assay; settings: read-out: LC50 (the source's name)
HOP-62 [12] = assay: cells; settings: Homo sapiens
Description: Growth inhibition of human HOP62 cells assessed as cell growth at 10 uM by SRB assay

MDA-MB-231 [13] = assay: cells; settings: Homo sapiens
Description: Growth inhibition of human MDA-MB-231 cells assessed as drug level required for 50% reduction in net protein increase by SRB assay relative to control

HT-29 [14] = assay: cells; settings: Homo sapiens
Description: Growth inhibition of human HT-29 cells assessed as drug level required for 50% reduction in net protein increase by SRB assay relative to control

MOLT-4 [15] = assay: cells; settings: Homo sapiens
Description: Growth inhibition of human MOLT4 cells assessed as cell growth at 10 uM by SRB assay

NCI-H460 = assay: Cytotoxicity against human NCI-H460 cells by SRB assay; settings: read-out: LC50 (the source's name)
OVCAR-4 = assay: Cytotoxicity against human OVCAR4 cells by SRB assay; settings: read-out: LC50 (the source's name)
Malme-3M [16] = assay: Cytotoxicity against human MALME-3M cells by SRB assay; settings: read-out: LC50 (the source's name)
A498 [17] = assay: cells; settings: Homo sapiens
Description: Growth inhibition of human A498 cells assessed as cell growth at 10 uM by SRB assay

A549 [18] = assay: Cytotoxicity against human A549 cells by SRB assay; settings: read-out: LC50 (the source's name)
SNB-75 = assay: cells; settings: Homo sapiens
Description: Growth inhibition of human SNB75 cells assessed as drug level required for 50% reduction in net protein increase by SRB assay relative to control

NCI-H226 [19] = assay: cells; settings: Homo sapiens
Description: Growth inhibition of human NCI-H226 cells assessed as cell growth at 10 uM by SRB assay

IGROV-1 = assay: cells; settings: Homo sapiens
Description: Growth inhibition of human IGROV1 cells assessed as drug level required for 50% reduction in net protein increase by SRB assay relative to control

LOX IMVI [20] = assay: cells; settings: Homo sapiens; remark: listed apart in the source
Description: Growth inhibition of human LOXIMVI cells assessed as drug level required for 50% reduction in net protein increase by SRB assay relative to control

HCT-15 [21] = assay: cells; settings: Homo sapiens
Description: Growth inhibition of human HCT15 cells assessed as drug level required for 50% reduction in net protein increase by SRB assay relative to control

HT-29 [22] = assay: cells; settings: Homo sapiens; remark: listed apart in the source
Description: Growth inhibition of human HT-29 cells assessed as cell growth at 10 uM by SRB assay

HOP-92 [23] = assay: cells; settings: Homo sapiens
Description: Growth inhibition of human HOP92 cells assessed as drug level required for 50% reduction in net protein increase by SRB assay relative to control

HCT-116 [24] = assay: cells; settings: Homo sapiens
Description: Growth inhibition of human HCT116 cells assessed as cell growth at 10 uM by SRB assay

UACC-257 = assay: cells; settings: Homo sapiens
Description: Growth inhibition of human UACC257 cells assessed as drug level required for 50% reduction in net protein increase by SRB assay relative to control

SNB-19 [25] = assay: Cytotoxicity against human SNB19 cells by SRB assay; settings: read-out: LC50 (the source's name)
RXF 393 [26] = assay: cells; settings: Homo sapiens
Description: Growth inhibition of human RFX393 cells assessed as cell growth at 10 uM by SRB assay

NCI-H226 [27] = assay: cells; settings: Homo sapiens; remark: listed apart in the source
Description: Growth inhibition of human NCI-H226 cells assessed as drug level required for 50% reduction in net protein increase by SRB assay relative to control

MDA-MB-468 = assay: cells; settings: Homo sapiens
Description: Growth inhibition of human MDA-MB-468 cells assessed as drug level required for 50% reduction in net protein increase by SRB assay relative to control

UO-31 = assay: cells; settings: Homo sapiens
Description: Growth inhibition of human UO31 cells assessed as cell growth at 10 uM by SRB assay

A498 [28] = assay: cells; settings: Homo sapiens; remark: listed apart in the source
Description: Growth inhibition of human A498 cells assessed as drug level required for 50% reduction in net protein increase by SRB assay relative to control

A549 [29] = assay: cells; settings: Homo sapiens
Description: Growth inhibition of human A549 cells assessed as cell growth at 10 uM by SRB assay

HCT-15 [30] = assay: cells; settings: Homo sapiens; remark: listed apart in the source
Description: Growth inhibition of human HCT15 cells assessed as cell growth at 10 uM by SRB assay

HOP-92 [31] = assay: cells; settings: Homo sapiens; remark: listed apart in the source
Description: Growth inhibition of human HOP92 cells assessed as cell growth at 10 uM by SRB assay

UACC-62 [32] = assay: cells; settings: Homo sapiens; remark: listed apart in the source
Description: Growth inhibition of human UACC62 cells assessed as drug level required for 50% reduction in net protein increase by SRB assay relative to control

SF-268 [33] = assay: Cytotoxicity against human SF268 cells by SRB assay; settings: read-out: LC50 (the source's name)
MCF7 [34] = assay: cells; settings: Homo sapiens; remark: listed apart in the source
Description: Growth inhibition of human MCF7 cells assessed as cell growth at 10 uM by SRB assay

cells [35] = settings: Homo sapiens, Hs-578T; read-out: LC50 (the source's name)
Description: Cytotoxicity against human Hs 578T cells by SRB assay

NCI-H322M [36] = assay: cells; settings: Homo sapiens; remark: listed apart in the source
Description: Growth inhibition of human NCI-H322M cells assessed as cell growth at 10 uM by SRB assay

MOLT-4 [37] = assay: cells; settings: Homo sapiens; remark: listed apart in the source
Description: Growth inhibition of human MOLT4 cells assessed as drug level required for 50% reduction in net protein increase by SRB assay relative to control

NCI-H522 = assay: cells; settings: Homo sapiens
Description: Growth inhibition of human NCI-H522 cells assessed as drug level required for 50% reduction in net protein increase by SRB assay relative to control

ACHN = assay: cells; settings: Homo sapiens
Description: Growth inhibition of human ACHN cells assessed as drug level required for 50% reduction in net protein increase by SRB assay relative to control

RXF 393 [38] = assay: Cytotoxicity against human RFX393 cells by SRB assay; settings: read-out: LC50 (the source's name)
DU-145 [39] = assay: Cytotoxicity against human DU145 cells by SRB assay; settings: read-out: LC50 (the source's name)
MDA-MB-231 [40] = assay: cells; settings: Homo sapiens; remark: listed apart in the source
Description: Growth inhibition of human MDA-MB-231 cells assessed as cell growth at 10 uM by SRB assay

SK-MEL-28 [41] = assay: cells; settings: Homo sapiens
Description: Growth inhibition of human SK-MEL-28 cells assessed as drug level required for 50% reduction in net protein increase by SRB assay relative to control

HL-60(TB) [42] = assay: cells; settings: Homo sapiens
Description: Growth inhibition of human HL-60(TB) cells assessed as cell growth at 10 uM by SRB assay

MDA-MB-435 = assay: Cytotoxicity against human MDA-MB-435 cells by SRB assay; settings: read-out: LC50 (the source's name)
SK-MEL-28 [43] = assay: Cytotoxicity against human SK-MEL-28 cells by SRB assay; settings: read-out: LC50 (the source's name)
SW-620 [44] = assay: cells; settings: Homo sapiens; remark: listed apart in the source
Description: Growth inhibition of human SW620 cells assessed as drug level required for 50% reduction in net protein increase by SRB assay relative to control

TK-10 [45] = assay: cells; settings: Homo sapiens
Description: Growth inhibition of human TK10 cells assessed as drug level required for 50% reduction in net protein increase by SRB assay relative to control

SK-MEL-2 = assay: cells; settings: Homo sapiens
Description: Growth inhibition of human SK-MEL-2 cells assessed as cell growth at 10 uM by SRB assay

PC-3 = assay: cells; settings: Homo sapiens
Description: Growth inhibition of human PC3 cells assessed as cell growth at 10 uM by SRB assay

HCT-116 [46] = assay: cells; settings: Homo sapiens; remark: listed apart in the source
Description: Growth inhibition of human HCT116 cells assessed as drug level required for 50% reduction in net protein increase by SRB assay relative to control

SK-MEL-5 = assay: cells; settings: Homo sapiens
Description: Growth inhibition of human SK-MEL-5 cells assessed as cell growth at 10 uM by SRB assay

KM12 = assay: cells; settings: Homo sapiens
Description: Growth inhibition of human KM12 cells assessed as drug level required for 50% reduction in net protein increase by SRB assay relative to control

SF-268 [47] = assay: cells; settings: Homo sapiens
Description: Growth inhibition of human SF268 cells assessed as drug level required for 50% reduction in net protein increase by SRB assay relative to control

BT-549 = assay: Cytotoxicity against human BT549 cells by SRB assay; settings: read-out: LC50 (the source's name)
HL-60(TB) [48] = assay: cells; settings: Homo sapiens; remark: listed apart in the source
Description: Growth inhibition of human HL-60(TB) cells assessed as drug level required for 50% reduction in net protein increase by SRB assay relative to control

SR = assay: cells; settings: Homo sapiens
Description: Growth inhibition of human SR cells assessed as drug level required for 50% reduction in net protein increase by SRB assay relative to control

HOP-62 [49] = assay: Cytotoxicity against human HOP62 cells by SRB assay; settings: read-out: LC50 (the source's name)
DU-145 [50] = assay: cells; settings: Homo sapiens
Description: Growth inhibition of human DU145 cells assessed as cell growth at 10 uM by SRB assay

Malme-3M [51] = assay: cells; settings: Homo sapiens
Description: Growth inhibition of human MALME-3M cells assessed as cell growth at 10 uM by SRB assay

cells [52] = settings: Homo sapiens, Hs-578T
Description: Growth inhibition of human Hs 578T cells assessed as drug level required for 50% reduction in net protein increase by SRB assay relative to control

TK-10 [53] = assay: cells; settings: Homo sapiens; remark: listed apart in the source
Description: Growth inhibition of human TK10 cells assessed as cell growth at 10 uM by SRB assay

CCCCCCCCCCCCCCCCCCPCCCCCCCCCCCCCC.O=S(=O)(NS(=O)(=O)C(F)(F)F)C(F)(F)F (stereo unspecified)
growth at 10 µM (HCC 2998 [1]): -24.4%
GI50 (NCI-H322M [2]): 0.321 µM
growth at 10 µM (LOX IMVI [3]): -68.5%
GI50 (MCF7 [4]): 0.144 µM
growth at 10 µM (SW-620 [5]): -86.3%
CC50 (SF-295 [6]): > 100 µM
GI50 (SNB-19 [7]): 0.069 µM
GI50 (OVCAR-8): 0.086 µM
growth at 10 µM (SF-295 [8]): -68.4%
growth at 10 µM (K562): 39%
growth at 10 µM (UACC-62 [9]): -28.1%
growth at 10 µM (cells [10]): 4.01%
CC50 (HCC 2998 [11]): > 100 µM
growth at 10 µM (HOP-62 [12]): -2.18%
GI50 (MDA-MB-231 [13]): 0.056 µM
GI50 (HT-29 [14]): 0.053 µM
growth at 10 µM (MOLT-4 [15]): 51.6%
CC50 (NCI-H460): > 100 µM
CC50 (OVCAR-4): > 100 µM
CC50 (Malme-3M [16]): 5.38 µM
growth at 10 µM (A498 [17]): -48.3%
CC50 (A549 [18]): > 100 µM
GI50 (SNB-75): 0.076 µM
growth at 10 µM (NCI-H226 [19]): -1.45%
GI50 (IGROV-1): 0.071 µM
GI50 (LOX IMVI [20]): 0.058 µM
GI50 (HCT-15 [21]): 0.291 µM
growth at 10 µM (HT-29 [22]): -58.2%
GI50 (HOP-92 [23]): 0.03 µM
growth at 10 µM (HCT-116 [24]): -70.8%
GI50 (UACC-257): 0.103 µM
CC50 (SNB-19 [25]): > 100 µM
growth at 10 µM (RXF 393 [26]): -97.7%
GI50 (NCI-H226 [27]): 0.105 µM
GI50 (MDA-MB-468): 0.036 µM
growth at 10 µM (UO-31): -36.6%
GI50 (A498 [28]): 0.31 µM
growth at 10 µM (A549 [29]): -35%
growth at 10 µM (HCT-15 [30]): 7.54%
growth at 10 µM (HOP-92 [31]): -67.1%
GI50 (UACC-62 [32]): 0.045 µM
CC50 (SF-268 [33]): > 100 µM
growth at 10 µM (MCF7 [34]): -51.8%
CC50 (cells [35]): > 100 µM
growth at 10 µM (NCI-H322M [36]): -11.9%
GI50 (MOLT-4 [37]): 0.069 µM
GI50 (NCI-H522): 0.105 µM
GI50 (ACHN): 0.26 µM
CC50 (RXF 393 [38]): > 100 µM
CC50 (DU-145 [39]): > 100 µM
growth at 10 µM (MDA-MB-231 [40]): -38.3%
GI50 (SK-MEL-28 [41]): 0.207 µM
growth at 10 µM (HL-60(TB) [42]): 43.1%
CC50 (MDA-MB-435): 19.8 µM
CC50 (SK-MEL-28 [43]): 6.59 µM
GI50 (SW-620 [44]): 0.049 µM
GI50 (TK-10 [45]): 0.341 µM
growth at 10 µM (SK-MEL-2): -3.57%
growth at 10 µM (PC-3): -78.1%
GI50 (HCT-116 [46]): 0.061 µM
growth at 10 µM (SK-MEL-5): -100%
GI50 (KM12): 0.049 µM
GI50 (SF-268 [47]): 0.072 µM
CC50 (BT-549): > 100 µM
GI50 (HL-60(TB) [48]): 0.046 µM
GI50 (SR): 0.072 µM
CC50 (HOP-62 [49]): > 100 µM
growth at 10 µM (DU-145 [50]): -100%
growth at 10 µM (Malme-3M [51]): -36.5%
GI50 (cells [52]): 0.053 µM
growth at 10 µM (TK-10 [53]): -43.3%
